{"source": "patent US20100266191A1", "about": "“METHOD FOR QUANTIFYING AN UNDERLYING PROPERTY OF A MULTITUDE OF SAMPLES” (priority 2007, published 2010)", "system": "GFP-human Akt3 fusion protein", "assay": "Akt3/PKBγ Redistribution assay (inhibition of IGF-I-stimulated membrane translocation)", "format": "cell-based", "details": "dose response fit of the estimated process coordinate, two-parameter formula, FIG. 15; IGF-I as reference agonist; read-out: Wortmannin concentration causing 50% changes (a)", "method": "The Akt3/PKBγ Redistribution® assay from BioImage (http://www.bioimage.com) monitors translocation of GFP-human Akt3 fusion protein from the cytoplasm to the plasma membrane. Insulin-like growth factor-I (IGF-I) is used as reference agonist, and compounds are assayed for their ability to inhibit IGF-I-stimulated membrane translocation of Akt3/PKBγ. In inhibited cells, fluorescence is quite evenly distributed in the cytoplasmic space. In activated cells, there are spots of high intensity on the membrane area. Exemplary images from negative and positive control samples are presented on FIG. 1. […] The measured profiles for a series of positive and negative control samples are presented on FIG. 10. […] The measured profiles aid us in deciding how many segments we create and where their borders are. […] On FIG. 12, mean intensities of the three segments are plotted as read out parameters from images of positive control samples (left) and negative control samples (right). […] It is a linear combination of original intensities determined from the condition given in Eq. 4. […]"}
{"compound": "COC[C@H]1OC(=O)c2coc3c2[C@@]1(C)C1=C(C3=O)[C@@H]2CCC(=O)[C@@]2(C)C[C@H]1OC(C)=O", "note": "[Wortmannin, wortmannin]", "values": [{"measurement": "IC50", "result": "36.4 ± 3", "unit": "nM"}]}
